± gives the uncertainty stated by the source.
Assay: xn = mol fraction of the nth substance listed

CCCC[N+](CCCC)(CCCC)CCCC.[Br-] + O
298.15 K, 101 kPa
Settings	viscosity [mPa·s]
x1 = 0.0009	0.8723
x1 = 0.0089	1.538
x1 = 0.0177	2.273

CN1CCCN2CCCN=C12 + O
100 kPa
Settings	viscosity [mPa·s]
294.96 K, x1 = 0.5035	29.2 ± 3.5
296.8 K, x1 = 0.1982	23.1 ± 3.8
296.87 K, x1 = 0.1982	24.9 ± 3.9
298.43 K, x1 = 0.5035	23.6 ± 2.8
298.43 K, x1 = 0.798	11.2 ± 1.3
303.69 K, x1 = 0.1982	15.8 ± 1.9
308.29 K, x1 = 0.5035	14 ± 1.7
308.31 K, x1 = 0.798	7.6 ± 0.9
313.13 K, x1 = 0.1982	11.5 ± 1.4
318.19 K, x1 = 0.798	5.6 ± 0.7

C[C@H](O)C(=O)O + O
viscosity [mPa·s], 101 kPa
Settings	x1 = 0.000625	x1 = 0.000941	x1 = 0.00124	x1 = 0.00156	x1 = 0.001899	x1 = 0.002188	x1 = 0.002523	x1 = 0.002822	x1 = 0.003145
298.15 K	0.898 ± 0.007	0.902 ± 0.007	0.906 ± 0.007	0.91 ± 0.007	0.914 ± 0.007	0.917 ± 0.007	0.922 ± 0.007	0.926 ± 0.007	0.929 ± 0.007
308.15 K	0.731 ± 0.006	0.734 ± 0.006	0.736 ± 0.006	0.738 ± 0.006	0.741 ± 0.006	0.744 ± 0.006	0.747 ± 0.006	0.75 ± 0.006	0.753 ± 0.006
318.15 K	0.601 ± 0.005	0.602 ± 0.005	0.604 ± 0.005	0.605 ± 0.005	0.607 ± 0.005	0.61 ± 0.005	0.612 ± 0.005	0.614 ± 0.005	0.616 ± 0.005

C[NH2+]CCO.O=C([O-])c1ccccc1O + O
100 kPa, x2 = 0.143
Settings	viscosity [mPa·s]
298 K	357.8 ± 15
303 K	249.1 ± 10
313 K	128.2 ± 4.7
323 K	72.71 ± 2.5

Cc1cccnc1 + O
298.15 K, 101 kPa
Settings	viscosity [mPa·s]
x1 = 0.02104	1.202 ± 0.019
x1 = 0.04558	1.604 ± 0.026
x1 = 0.2966	3.291 ± 0.053
x1 = 0.6032	1.972 ± 0.032

NCCN1CCNCC1 + O
101.3 kPa
Settings	viscosity [mPa·s]
298 K, x1 = 0.00152	0.92 ± 0.05
298 K, x1 = 0.00275	0.95 ± 0.05
298 K, x1 = 0.00774	1.11 ± 0.06
298 K, x1 = 0.0161	1.38 ± 0.07
298 K, x1 = 0.0255	1.82 ± 0.09
303 K, x1 = 0.00152	0.87 ± 0.04
303 K, x1 = 0.00275	0.89 ± 0.05
303 K, x1 = 0.00774	1 ± 0.05
303 K, x1 = 0.0161	1.25 ± 0.06
303 K, x1 = 0.0255	1.66 ± 0.08
303.2 K, x1 = 0.015	1.241 ± 0.026
303.2 K, x1 = 0.024	1.651 ± 0.035
303.2 K, x1 = 0.034	2.17 ± 0.05
303.2 K, x1 = 0.044	2.861 ± 0.063
303.2 K, x1 = 0.056	3.918 ± 0.084
303.2 K, x1 = 0.07	4.722 ± 0.1
303.2 K, x1 = 0.085	5.556 ± 0.12
313 K, x1 = 0.00152	0.74 ± 0.04
313 K, x1 = 0.00275	0.78 ± 0.04
313 K, x1 = 0.00774	0.85 ± 0.04
313 K, x1 = 0.0161	1.04 ± 0.05
313 K, x1 = 0.0255	1.32 ± 0.07
313.2 K, x1 = 0.015	1.001 ± 0.021
313.2 K, x1 = 0.024	1.312 ± 0.028
313.2 K, x1 = 0.034	1.589 ± 0.035
313.2 K, x1 = 0.044	2.074 ± 0.045
313.2 K, x1 = 0.056	2.839 ± 0.062
313.2 K, x1 = 0.07	3.558 ± 0.077
313.2 K, x1 = 0.085	4.367 ± 0.094
323 K, x1 = 0.00152	0.6 ± 0.03
323 K, x1 = 0.00275	0.61 ± 0.03
323 K, x1 = 0.00774	0.69 ± 0.04
323 K, x1 = 0.0161	0.83 ± 0.04
323 K, x1 = 0.0255	1.03 ± 0.05

Source: the CheMixHub viscosity set
